Reference: patent publication US8173392B2, “In vivo incorporation of unnatural amino acids” (The Scripps Research Institute, priority 2001, dated 2012)
Residue numbers refer to the chain shown, from its start.

How the values were obtained:
[1] = tested on: valine positions, mutant ValRS; settings: mutant E. coli strain grown in presence of Abu; cited from earlier work
mutant TyrRS (LWJ16) = target: T1, mutant TyrRS (LWJ16) (Methanocaldococcus jannaschii, UniProt Q57834, D158A/E107T/L162P/N268S/Y32Q); assay: pyrophosphate-exchange assay (adenylate formation with ATP); format: biochemical, M. jannaschii; settings: for Kcat / Km: 37° C., pH7.5
T1 construct: The mutant TyrRS (LWJ16) gene with six histidines at its C-terminus was cloned into plasmid pQE-60; His6 (C); made in house
Description: Kinetics of adenylate formation of O-methyl-L-tyrosine and tyrosine with ATP catalyzed by the mutant TyrRS (LWJ16) were analyzed in vitro using a pyrophosphate-exchange assay. The mutant TyrRS (LWJ16) gene with six histidines at its C-terminus was cloned into plasmid pQE-60 (Qiagen, CA) to afford plasmid pQE-mJYRS. Protein was purified by immobilized metal affinity chromatography according to manufacture's protocol (Qiagen, CA). Pyrophosphate (PPi) exchange was carried out at 37° C. in a reaction mixture containing 100 mM Tris HCl (pH7.5), 10 mM KF, 5 mM MgCl2, 2 mM ATP, 2 mM NaPPi, 0.1 mg/mL bovine serum albumin, approximately 0.01 microCi/mL [32P]NaPPi, and various concentrations of tyrosine or O-methyl-L-tyrosine. Reactions were initiated with the addition of the purified mutant TyrRS (LWJ16), and aliquots were periodically taken and quenched with 0.2 M NaPPi, 7% perchloric acid, and 2% activated charcoal. The charcoal was filtered and washed with 10 mM NaPPi (pH2), then measured by scintillation counting to determine the 32P levels in charcoal-adsorbed ATP. Values of kcat and Km were calculated by direct fitting of the Michaelis-Menten equation using nonlinear regression analysis.

E. coli = assay: effect of the amino acid on growth rate of E. coli; format: cell-based; settings: 1 mM
Description: Following the two rounds of selection and DNA shuffling, a clone (mutant TyrRS (LWJ16)) was evolved whose survival in chloramphenicol was dependent on the addition of 1 mM O-methyl-L-tyrosine to the growth media. In the absence of O-methyl-L-tyrosine, cells harboring the mutant TyrRS (LWJ16) were not viable on minimal media plates containing 1% glycerol, 0.3 mM leucine (GMML), and 15 micrograms/mL of chloramphenicol. Cells were able to grow on GMML plates with 125 micrograms/mL chloramphenicol in the presence of 1 mM O-methyl-L-tyrosine. Similar results were obtained in liquid GMML.

[2] = tested on: cells expressing m-acetyl phenylalanine-incorporated DHFR
Description: Cells expressing the “ketone handle”-incorporated DHFR were incubated with fluorescein hydrazide solution. After 36 hours at 4° C. and extensive washes to remove excess fluorescein hydrazide, the labeled DHFR protein was purified and subjected to fluorescence emission tests. As a negative control in parallel, m-methoxy phenylalanine-incorporated DHFR was also purified with the same procedures.

[3] = tested on: yeast amber suppressor tRNAPheCUA/phenylalanyl-tRNA synthetase pair; settings: cited from earlier work
SjGST homodimer = assay: photo-activated crosslinking of SjGST (365 nm, SDS-PAGE); set-up: species or system Schistosoma Japonica; settings: long wavelength UV irradiation, 5 minutes
Source text: In vivo incorporation of pBpa into GST. […] This protein is a dimer of two identical subunits which have previously been crosslinked non-specifically using gluteraldehyde. The crystal structure of the dimeric Schistosoma Japonica glutathione-S-transferase (SjGST) (McTigue, M. A., Williams, D. R. & Tainer, J. A. Journal of Molecular Biology 246, 21-27 (1995)) was used to identify two sites to substitute with pBp: residue Phe52, which is buried in the dimer interface of the crystal structure, and residue Tyr198 which is solvent exposed. The codons corresponding to Phe52 or Tyr198 in the gene for a 27 kDa protein Sj GST, were replaced with amber codons. The orthogonal synthetase tRNA pair was then used to site specifically incorporate pBpa into SjGST in E. coli at these sites. Upon irradiation with long wavelength ultraviolet radiation, purified SjGST was converted to a covalently linked homodimer as judged by denaturing SDS PAGE. Approximately 70% of the SjGST present was crosslinked in 5 minutes.
Photo-activated crosslinking. Crosslinking reactions were performed in a 96 well microtitre plate (Nuncsorb) using 100 μL of 10 ng/μL SjGST (in 50 mM NaH2Po4, 300 mM NaCl, 250 mM imidazole) at 4° C. Samples were irradiated at 365 nm using a handheld UV lamp (1 SV, 60 Hz, 0.2 A; Spectronics, NY, USA), for 1 min or 5 min. […]

[4] = tested on: Asp112TAG codon in the CAT gene; assay: in vivo chloramphenicol acetyltransferase assay (suppression of Asp112TAG codon in CAT gene, pYC-J17); format: cell-based, E. coli; settings: GMML plates
Description: A positive selection was then applied that is based on suppression of an amber stop codon at a nonessential position (Asp112) in the chloramphenicol acetyltransferase (CAT) gene (M. Pastrnak, T. J. Magliery, P. G. Schultz, Helvetica Chimica Acta. 83, 2277-86 (2000)). Cells were grown in media containing the unnatural amino acid and selected for their survival in the presence of various concentration of chloramphenicol. If a mutant TyrRS charges the orthogonal mtRNACUA^Tyr with any amino acid, either natural or unnatural, the cell produces CAT and survives.
The gene encoding mtRNACUA^Tyr under the control of the lpp promoter and rrnC terminator was inserted into plasmid pACMD112TAG (a pACYC184 plasmid with a TAG stop codon replacing Asp112 in its CAT gene (M. Pastrnak, T. J. Magliery, P. G. Schultz, Helvetica Chimica Acta. 83, 2277-86 (2000))) to afford plasmid pYC-J17. Supercoiled DNA encoding the TyrRS library was transformed into E. coli DH10B competent cells containing pYC-J17 to yield a library of size greater than 3×10^9 cfu, ensuring complete coverage of the original library. Cells were then plated on minimal media plates containing 1% glycerol and 0.3 mM leucine (GMML) with 17 micrograms/mL tetracycline(Tet), 25 micrograms/mL kanamycin (Kan), 50 micrograms/mL of chloramphenicol (Cm), and 1 mM unnatural amino acid. […]

[5] = tested on: amber codons in T7 RNA polymerase gene driving GFPuv; assay: fluorimetric analysis, T7 RNA polymerase/GFPuv reporter (pREP/YC-JYCUA); format: cell-based, E. coli; settings: presence versus absence of OAT
Description: Construction of a multipurpose reporter plasmid. In order to construct a multipurpose plasmid to be used both for selecting and screening variants of a M. jannaschii TyrRS, plasmid pREP(10) was combined with plasmid pYC-J17 (Wang, L, Brock, A., Herberich, B. & Schultz, P. G., Science, 2001, 292, 498-500) to obtain pREP/YC-JYCUA (FIG. 7b). Plasmid pREP/YC-JYCUA was assayed for function with a compatible plasmid expressing a variant of M. jannaschii TyrRS (pBK-mJYRS; Wang, L, Brock, A., Herberich, B. & Schultz, P. G., Science, 2001, 292, 498-500) selective for incorporating O-Methyl-Tyrosine (OMY).
As described above, the T7 RNA polymerase/GFP system can be used to quantitatively compare the activities of synthetase variants. […] The fluorescence enhancement for cells grown in the presence versus the absence of the unnatural amino acid is thus about 6-fold higher for cells expressing OAT-RS (1) from selection and screening than for cells expressing the OAT-RS clone derived from positive/negative selection using barnase. […] However, the fluorescence enhancement for cells grown in the presence versus the absence of an unnatural amino acid is expected to represent a lower limit for the fidelity of unnatural amino acid incorporation, as competition of unnatural amino acids for being bound by an evolved synthetase variant would reduce binding of natural amino acids. […]

CCC(N)C(=O)O (centres unmarked) [Abu, aminobutyrate]
valines replaced at each valine position in the native protein [1]: about 24%

N[C@@H](Cc1ccc(O)cc1)C(=O)O [L-tyrosine]
Km higher than that for O-methyl-L-tyrosine (mutant TyrRS (LWJ16)): approximately 13 fold | kcat down relative to that for O-methyl-L-tyrosine (mutant TyrRS (LWJ16)): 8 fold | Kcat (mutant TyrRS (LWJ16)): 1.8 ± 0.2 10 − 3 s − 1 | Km (mutant TyrRS (LWJ16)): 5.83 mM

COc1ccc(C[C@H](N)C(=O)O)cc1 [O-methyl-L-tyrosine]
effect on growth rate of E. coli (E. coli): does not significantly affect the growth rate | kcat/Km higher than that of tyrosine (mutant TyrRS (LWJ16)): about 100 fold | Kcat (mutant TyrRS (LWJ16)): 14 ± 1 10 − 3 s − 1 | Km (mutant TyrRS (LWJ16)): 0.443 mM

NN1C(=O)c2ccccc2C12c1ccc(O)cc1Oc1cc(O)ccc12 [fluorescein hydrazide]
cell permeability [2]: cell-permeable | lysis of cells [2]: does not lyse cells

N[C@@H](Cc1ccc(F)cc1)C(=O)O [p-F-Phe, p-fluorophenylalanine]
amino acid found at the Phe codon positions [3]: 7% | translation of the mutagenesis site with the amino acid ([3]; excess of p-F-Phe in growth media): 64-75%

SjGST: Schistosoma Japonica glutathione-S-transferase with pBpa, presumably at Phe52 in the dimer interface
SjGST crosslinked to covalent homodimer (SjGST homodimer): Approximately 70%

B1: mutant TyrRS (LWJ16) (protein, listed as Methanococcus jannaschii)
chain: MDEFEMIKRNTSEIISEEELREVLKKDEKSAQIGFEPSGKIHLGHYLQIKKMIDLQNAGFDIIILLADLHAYLNQKGELDEIRKIGDYNKKVFEAMGLKAKYVYGSTFQLDKDYTLNVYRLALKTTLKRARRSMELIAREDENPKVAEVIYPIMQVNAIHYPGVDVAVGGMEQRKIHMLARELLPKKVVCIHNPVLTGLDGEGKMSSSKGNFIAVDDSPEEIRAKIKKAYCPAGVVEGNPIMEIAKYFLEYPLTIKRPEKFGGDLTVSSYEELESLFKNKELHPMDLKNAVAEELIKILEPIRKRL
chloramphenicol concentration at which cells were not viable ([4]; absence of O-methyl-L-tyrosine): 15 micrograms/mL | chloramphenicol concentration at which cells were able to grow ([4]; presence of 1 mM O-methyl-L-tyrosine): 125 micrograms/mL

B2: OAT-RS (1): O-allyl-tyrosine synthetase clone from positive selection and negative FACS screening (protein, listed as Methanococcus jannaschii)
chain: B1 chain with Q32S, A158T, I159Y, P162A, S268N
fluorescence enhancement higher than for OAT-RS clone from positive/negative selection using barnase [5]: about 6 fold
